Measurements published in PMC3200116 (Journal of medicinal chemistry, 2011).
Where a name gives a salt, the structure may show the parent alone.

What was measured:
[1] = system: α7 nACh receptors; settings: cited from earlier work
[2] = target: T1, α4β2 nACh receptors (Homo sapiens, UniProt P17787+P43681); settings: potentiation of ACh at α4β2, cited from earlier work
[3] = target: human α7 nACh receptors (Homo sapiens, UniProt P36544); settings: at concentrations slightly higher than those potentiating at α4β2; cited from earlier work
[4] = system: α3β2 nACh receptors; settings: Xenopus oocytes; cited from earlier work
[5] = system: α3β4 nACh receptors; settings: Xenopus oocytes; cited from earlier work
[6] = system: α4β4 nACh receptors; settings: Xenopus oocytes; cited from earlier work
[7] = target: T1, α4β2 nACh receptors; type: cell-based; settings: for potency as positive allosteric modulator relative to 1: compared with 1; for positive allosteric modulation (potentiation of ACh), in words: highest concentrations evaluated
[8] = target: T1, α4β2 nACh receptors; assay: Antagonism; type: cell-based

T1 sequence (P43681 27-627): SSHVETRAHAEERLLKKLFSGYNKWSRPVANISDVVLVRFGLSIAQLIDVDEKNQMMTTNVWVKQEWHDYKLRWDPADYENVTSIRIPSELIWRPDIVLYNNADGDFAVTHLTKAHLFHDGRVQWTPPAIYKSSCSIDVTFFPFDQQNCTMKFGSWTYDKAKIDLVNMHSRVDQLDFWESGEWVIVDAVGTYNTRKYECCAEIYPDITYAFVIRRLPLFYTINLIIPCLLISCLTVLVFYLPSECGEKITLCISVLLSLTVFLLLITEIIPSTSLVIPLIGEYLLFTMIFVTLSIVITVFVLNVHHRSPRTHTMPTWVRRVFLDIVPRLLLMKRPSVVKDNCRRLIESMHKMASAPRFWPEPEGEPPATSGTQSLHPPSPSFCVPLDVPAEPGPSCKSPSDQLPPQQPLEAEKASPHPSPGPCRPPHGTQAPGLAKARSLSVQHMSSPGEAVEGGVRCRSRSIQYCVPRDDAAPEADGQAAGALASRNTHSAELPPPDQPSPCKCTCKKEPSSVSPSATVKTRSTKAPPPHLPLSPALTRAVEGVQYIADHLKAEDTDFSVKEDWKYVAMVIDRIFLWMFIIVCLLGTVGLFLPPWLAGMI
T1 sequence (P17787 26-502): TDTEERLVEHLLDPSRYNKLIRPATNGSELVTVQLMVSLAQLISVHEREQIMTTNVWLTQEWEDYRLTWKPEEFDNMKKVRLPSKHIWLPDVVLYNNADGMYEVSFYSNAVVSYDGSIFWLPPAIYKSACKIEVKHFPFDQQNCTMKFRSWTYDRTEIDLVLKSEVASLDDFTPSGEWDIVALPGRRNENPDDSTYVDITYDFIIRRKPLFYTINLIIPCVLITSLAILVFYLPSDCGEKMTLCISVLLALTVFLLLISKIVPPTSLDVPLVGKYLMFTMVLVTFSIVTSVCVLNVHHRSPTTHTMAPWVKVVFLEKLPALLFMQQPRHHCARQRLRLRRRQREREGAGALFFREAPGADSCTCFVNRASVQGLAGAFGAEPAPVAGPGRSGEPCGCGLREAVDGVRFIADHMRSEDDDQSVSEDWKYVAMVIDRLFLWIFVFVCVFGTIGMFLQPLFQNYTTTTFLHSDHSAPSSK
Sequence of human α7 nACh receptors (P36544 23-502): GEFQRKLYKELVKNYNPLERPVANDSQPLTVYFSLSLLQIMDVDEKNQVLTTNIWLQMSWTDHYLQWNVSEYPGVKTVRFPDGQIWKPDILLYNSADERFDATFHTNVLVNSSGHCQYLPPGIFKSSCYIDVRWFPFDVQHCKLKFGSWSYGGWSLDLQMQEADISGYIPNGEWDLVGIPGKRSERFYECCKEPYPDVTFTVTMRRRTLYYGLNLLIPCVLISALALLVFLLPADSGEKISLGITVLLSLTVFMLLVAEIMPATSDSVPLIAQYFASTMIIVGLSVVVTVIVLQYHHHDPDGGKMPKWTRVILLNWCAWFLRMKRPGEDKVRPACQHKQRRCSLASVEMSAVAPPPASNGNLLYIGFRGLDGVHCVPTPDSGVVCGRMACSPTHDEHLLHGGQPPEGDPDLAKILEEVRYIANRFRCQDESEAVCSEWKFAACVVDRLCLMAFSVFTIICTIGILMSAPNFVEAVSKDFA

Row | Structure (SMILES) | IC50 [8] [µM] | positive allosteric modulation (potentiation of ACh), in words [7] | other results
1 | C=CC(C)(C)c1[nH]c2cc(Br)ccc2c1CCNC.Cl [Compound 1, des-formylflustrabromine] |  |  | potentiation of the actions of ACh at α7 ([1]; Xenopus oocytes): failed to potentiate; potentiation of the action of ACh in an α7 preparation [1]: failed to potentiate; pEC50 originally reported [2]: ca. 6.8; EC50 ([2]; read-out: EC50 originally reported): 0.12 µM; inhibition of the action of ACh in an α7 preparation [3]: inhibited; potentiation of the actions of ACh at α3β2 [4]: failed to potentiate; potentiation of the actions of ACh at α3β4 [5]: failed to potentiate; potentiation of the actions of ACh at α4β4 [6]: failed to potentiate
2 | C=CC(C)(C)c1[nH]c2cc(Br)ccc2c1CCN [Compound 2, 6-Bromo-2-(1,1-dimethylallyl)tryptamine Hydrochloride] |  |  | potency as positive allosteric modulator relative to 1 [7]: about half as potent as 1
3 | CNCCc1c[nH]c2cc(Br)ccc12 [Compound 3, N-Methyl-6-bromotryptamine] | 39.8 | failed to enhance the action of ACh | 
4 | CCCc1[nH]c2cc(Br)ccc2c1CCNC [Compound 4, N-Methyl-6-bromo-2-n-propyltryptamine Oxalate] | 72.4 |  | 
5 | C=CCc1[nH]c2cc(Br)ccc2c1CCNC [Compound 5, N-Methyl-2-allyl-6-bromotryptamine Oxalate] | 3.55 | lacked potentiating activity | 
6 | CCC(C)(C)c1[nH]c2cc(Br)ccc2c1CCNC [Compound 6, N-Methyl-6-bromo-2-(1,1-dimethylpropyl)tryptamine Oxalate] |  |  | potency as positive allosteric modulator relative to 1 [7]: at least as potent, if not twice as potent, as 1
7 | CCC(C)c1[nH]c2ccccc2c1CCNC (stereo not drawn) [Compound 9, N-Methyl-2-sec-butyltryptamine Oxalate] | 16.6 | inactive | 
8 | CCCc1[nH]c2ccccc2c1CCNC [Compound 10, N-Methyl-2-(n-propyl)tryptamine Oxalate] | 18.6 | inactivity | 
9 | CNCCc1c(C(C)(C)C)[nH]c2ccccc12 [Compound 11, N-Methyl-2-(tert-butyl)tryptamine Hydrogen Oxalate] |  | active | 
10 | CNCCc1c(C(C)C)[nH]c2ccccc12 [Compound 12, N-Methyl-2-isopropyltryptamine Hydrochloride] |  | inactive | 
